This note sets out measurements from ChEMBL document CHEMBL1136575, “Pyridazinones as selective cyclooxygenase-2 inhibitors” (Bioorg Med Chem Lett, 2003).

The target of data set [1] is Prostaglandin G/H synthase 1 (Homo sapiens, UniProt P23219). In words: In vitro inhibitory activity against sensitive U-937 microsomal prostaglandin G/H synthase 1.
The target of data set [2] is T1, Prostaglandin G/H synthase 2 (Homo sapiens, UniProt P35354).
T1 sequence (P35354 whole entry): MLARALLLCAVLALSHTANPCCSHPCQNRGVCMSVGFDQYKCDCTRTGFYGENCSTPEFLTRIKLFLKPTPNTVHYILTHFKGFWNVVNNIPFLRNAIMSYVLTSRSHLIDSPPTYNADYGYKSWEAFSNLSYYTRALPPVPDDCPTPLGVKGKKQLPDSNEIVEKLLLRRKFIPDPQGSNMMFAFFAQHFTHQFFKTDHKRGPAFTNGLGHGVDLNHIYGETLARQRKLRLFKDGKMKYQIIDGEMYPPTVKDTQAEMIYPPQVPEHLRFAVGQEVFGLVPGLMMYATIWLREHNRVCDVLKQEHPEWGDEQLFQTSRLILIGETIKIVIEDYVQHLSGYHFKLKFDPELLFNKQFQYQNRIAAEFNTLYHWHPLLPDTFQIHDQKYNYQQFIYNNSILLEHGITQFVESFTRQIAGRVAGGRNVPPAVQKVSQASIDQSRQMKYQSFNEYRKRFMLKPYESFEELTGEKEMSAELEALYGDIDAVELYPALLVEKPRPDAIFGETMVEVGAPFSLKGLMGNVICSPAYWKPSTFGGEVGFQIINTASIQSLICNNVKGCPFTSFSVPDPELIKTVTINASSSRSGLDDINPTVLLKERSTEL
In words: In vitro inhibitory activity against prostaglandin G/H synthase 2 stably transfected in Human whole blood (HWB) cell. It counts as tissue-based.

The target in data set [3] is T1, Prostaglandin G/H synthase 2. Put plainly: In vitro inhibitory activity against prostaglandin G/H synthase 2 stably transfected in Chinese hamster ovary (CHO) cells. It counts as cell-based.
Data set [4] in a line: Cmax value was determined after peroral administration of 20 mg/kg in rat. The following applies: in vivo, po. It counts as ADME, organism-based. On the set-up: dose 20 mg/kg, route oral.
Data set [5] concerns Rattus norvegicus. Put plainly: Effective dose of the Compound was determined in vivo by using rat pyresis assay. It counts as functional.
Data set [6] relates to Rattus norvegicus. Put plainly: Effective dose of the Compound was determined in vivo by using rat paw edema assay. It counts as functional.
The subject of data set [7] is Rattus norvegicus. In words: Percent inhibition was determined in vivo by using rat paw edema assay at 10 mg/kg. It counts as functional.

Some results are limits rather than exact numbers.

Chain of Prostaglandin G/H synthase 1 (P23219 whole entry): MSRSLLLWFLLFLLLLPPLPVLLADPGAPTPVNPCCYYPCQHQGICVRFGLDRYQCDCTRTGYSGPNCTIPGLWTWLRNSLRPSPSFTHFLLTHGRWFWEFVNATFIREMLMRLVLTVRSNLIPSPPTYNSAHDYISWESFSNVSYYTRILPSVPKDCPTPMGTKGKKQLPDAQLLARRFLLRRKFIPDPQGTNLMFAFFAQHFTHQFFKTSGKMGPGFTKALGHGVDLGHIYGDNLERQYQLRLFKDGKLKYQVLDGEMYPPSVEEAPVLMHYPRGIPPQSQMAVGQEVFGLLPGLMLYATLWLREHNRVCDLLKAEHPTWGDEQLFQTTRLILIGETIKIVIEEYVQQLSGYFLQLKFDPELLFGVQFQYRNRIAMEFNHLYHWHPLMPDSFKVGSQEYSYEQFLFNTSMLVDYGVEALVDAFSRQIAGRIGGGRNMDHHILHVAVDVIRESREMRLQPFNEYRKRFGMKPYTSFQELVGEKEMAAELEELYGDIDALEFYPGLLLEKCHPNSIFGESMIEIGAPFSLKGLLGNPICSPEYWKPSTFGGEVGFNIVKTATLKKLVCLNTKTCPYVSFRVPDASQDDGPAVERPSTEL

On to `CC(C)=CCn1ncc(-c2ccc(S(C)(=O)=O)cc2)c(-c2ccc(F)cc2)c1=O`, for which the IC50 in data set [1] came to 3 µM.

As for `CS(=O)(=O)c1ccc(-c2cnn(CCC3CC3)c(=O)c2-c2ccc(F)cc2)cc1`, the figures for the IC50 in data set [2], in data set [3] and in data set [1] were 2.9 µM, 0.2 µM and more than 10 µM, respectively.

As to `CS(=O)(=O)c1ccc(-c2cnn(Cc3ccccc3)c(=O)c2Oc2ccc(Cl)cn2)cc1`, the IC50 in data set [1] was determined as 10 µM.

With `CS(=O)(=O)c1ccc(-c2cnn(C3CC3)c(=O)c2-c2ccc(F)cc2)cc1`, in data set [1], the IC50 is 10 µM.

In data set [4], `C[C@H]1C[C@@H]1Cn1ncc(-c2ccc(S(C)(=O)=O)cc2)c(-c2ccc(F)cc2)c1=O` displayed a Cmax of 16 µM. Moreover, the IC50 in data set [2] was 0.3 µM; in data set [3], 0.06 µM; in data set [1], 3 µM. Further, the ED50 in the data set on Rattus norvegicus [5] came out at 1.1 mg/kg; with Rattus norvegicus [6], 0.7 mg/kg.

`CS(=O)(=O)c1ccc(-c2cnn(Cc3cccs3)c(=O)c2-c2ccc(F)cc2)cc1` returned an IC50 in data set [1] of 1 µM.

As to `CS(=O)(=O)c1ccc(-c2cnn(Cc3nccs3)c(=O)c2-c2ccc(F)cc2)cc1`, the IC50 in data set [2] came to 5.9 µM; in data set [3] it was 0.6 µM; in data set [1], 10 µM.

On to `CC1(Cn2ncc(-c3ccc(S(C)(=O)=O)cc3)c(-c3ccc(F)cc3)c2=O)CC1`, for which the results for the IC50 in data set [2], in data set [3] and in data set [1] were 0.7 µM, 0.2 µM and 3 µM, respectively.

`CS(=O)(=O)c1ccc(-c2cnn(Cc3ccccc3)c(=O)c2OCC2CC2)cc1` yielded a Cmax in data set [4] of 0.8 µM. For the same compound, the values for the IC50 in data set [2], in data set [3] and in data set [1] were 0.36 µM, 0.003 µM and 10 µM, respectively. Moreover, the ED50 with Rattus norvegicus [6] was more than 10 mg/kg.

Turning to `CC1(C)CC1Cn1ncc(-c2ccc(S(C)(=O)=O)cc2)c(-c2ccc(F)cc2)c1=O` (racemic), the IC50 is 0.7 µM in data set [2], 0.03 µM in data set [3] and 3 µM in data set [1].

Consider `CC(C1CC1)n1ncc(-c2ccc(S(C)(=O)=O)cc2)c(-c2ccc(F)cc2)c1=O` (racemic), for which, in data set [4], the Cmax worked out at 13 µM. The IC50 turned out to be 0.7 µM in data set [2], 0.2 µM in data set [3] and 10 µM in data set [1]. Moreover, the results for the ED50 in the data set with Rattus norvegicus [5] and in the data set on Rattus norvegicus [6] were more than 10 mg/kg and 1.8 mg/kg, respectively.

In the data set with Rattus norvegicus [6], `CS(=O)(=O)c1ccc(-c2cnn(Cc3ccccc3)c(=O)c2Oc2ccc(F)cc2)cc1` showed an ED50 of more than 10 mg/kg. Also, the IC50 in data set [1] came to 1 µM.

With `C[C@H]1C(Cn2ncc(-c3ccc(S(C)(=O)=O)cc3)c(-c3ccc(F)cc3)c2=O)[C@@H]1C` (mixture of isomers), the IC50 in data set [2] came out at 0.7 µM; in data set [3], 0.05 µM; in data set [1] it was 3 µM.

`C[C@@H]1C[C@H]1Cn1ncc(-c2ccc(S(C)(=O)=O)cc2)c(-c2ccc(F)cc2)c1=O` came in with a Cmax in data set [4] of 4.8 µM. In addition, the IC50 worked out at 1.7 µM in data set [2], 0.06 µM in data set [3] and 10 µM in data set [1]. Also, at 10 mg/kg the inhibition in vivo in the data set on Rattus norvegicus [7] was 40%.

`CC(C)(C)n1ncc(-c2ccc(S(C)(=O)=O)cc2)c(-c2ccccc2)c1=O`: the values for the IC50 in data set [2], in data set [3] and in data set [1] were more than 33 µM, more than 5 µM and more than 10 µM, respectively.

In data set [1], `CS(=O)(=O)c1ccc(-c2cnn(CC3CCCCC3)c(=O)c2-c2ccc(F)cc2)cc1` had an IC50 of 1 µM.

As for `CS(=O)(=O)c1ccc(-c2cnn(Cc3ccccc3)c(=O)c2-c2ccccc2)cc1`, the Cmax in data set [4] was found to be 1 µM. In data set [1], this compound registered an IC50 of 10 µM.

In data set [4], `Cc1ccc(-c2c(-c3ccc(S(C)(=O)=O)cc3)cnn(Cc3ccccc3)c2=O)cn1` returned a Cmax of 4.2 µM. In addition, the ED50 with Rattus norvegicus [6] was more than 10 mg/kg. In data set [1], the IC50 is more than 10 µM.

In turn, `CS(=O)(=O)c1ccc(-c2cnn(CC3CC3)c(=O)c2-c2ccc(F)cc2)cc1` registered a Cmax in data set [4] of 8.5 µM. For the same compound, the 50% effect level in the data set on Rattus norvegicus [6] (ED50) was put at a dose of 10 mg/kg. Besides, the IC50 in data set [1] is more than 10 µM.

With `CS(=O)(=O)c1ccc(-c2cnn(Cc3ccccc3)c(=O)c2Sc2ccccc2)cc1`, the IC50 in data set [2] stood at 5.9 µM; in data set [3], 0.37 µM; in data set [1], 10 µM.

Regarding `CC(C)Oc1c(-c2ccc(S(C)(=O)=O)cc2)cnn(Cc2ccccc2)c1=O`, in data set [4], the Cmax turned out to be 2.8 µM. The ED50 with Rattus norvegicus [5] and in the data set on Rattus norvegicus [6] was less than 0.3 mg/kg throughout. Also, in data set [1], the IC50 was more than 10 µM.

On to `CS(=O)(=O)c1ccc(-c2cnnc(O)c2-c2ccccc2)cc1`, for which the figures for the IC50 in data set [2], in data set [3] and in data set [1] were more than 33 µM, more than 5 µM and more than 10 µM, respectively.

Regarding `CS(=O)(=O)c1ccc(-c2cnn(Cc3cccnc3)c(=O)c2-c2ccccc2)cc1`, the IC50 was 7.1 µM in data set [2], 1.3 µM in data set [3] and 10 µM in data set [1].

Regarding `C[C@H]1C[C@H]1Cn1ncc(-c2ccc(S(C)(=O)=O)cc2)c(-c2ccc(F)cc2)c1=O` (racemic), the IC50 worked out at 2.4 µM in data set [2], 0.05 µM in data set [3] and 10 µM in data set [1].

Regarding `Cc1ccc(-c2c(-c3ccc(S(C)(=O)=O)cc3)cnn(Cc3ccccc3)c2=O)cc1`, the concentration in data set [4] peaked (Cmax) at 2.7 µM. In addition, the ED50 in the data set on Rattus norvegicus [5] is more than 10 mg/kg; with Rattus norvegicus [6] it was 2.2 mg/kg. In addition, the IC50 in data set [3] is 0.02 µM; in data set [1] it was more than 10 µM.

Take `CS(=O)(=O)c1ccc(-c2cnn(-c3ccccc3)c(=O)c2-c2ccccc2)cc1`: the IC50 in data set [1] was more than 10 µM.

On to `Cn1ncc(-c2ccc(S(C)(=O)=O)cc2)c(-c2ccccc2)c1=O`, for which half-maximal inhibition in data set [3] (IC50) required 0.3 µM.
